Experimental data from patent US5521293A (Lever Brothers Company, Division of Conopco, Inc., priority 1995, dated 1996).

What was measured:
Assay type in all cases: physicochemical
[1] = Krafft point of aqueous dispersion of aldonamide; settings: for Krafft Point (0.1%): 0.1% in water by weight; for Krafft Point (1.0%): 1.0% in water by weight
Description: The temperature at and above which surfactants begin to form micelles instead of precipitates is referred to as the Krafft point (Tk) and at this temperature the solubility of a surfactant becomes equal to its CMC (numerical value at which micelles are formed).
The Krafft point was measured by preparing 650 ml of a 0.1% or 1.0% dispersion of aldonamide in water by weight. If the surfactant was soluble at room temperature, the solution was slowly cooled to 0° C. […] (less than zero). If it precipitated out of solution, the temperature at which precipitation occurs was taken as the Krafft point.
If the surfactant was insoluble at :room temperature, the dispersion was slowly heated until the solution became homogeneous. It was then slowly cooled until precipitation occurred. The temperature at which the surfactant precipitates out of solution upon cooling was taken as the Krafft point.

Ross-Miles foam height [2] = assay: Ross-Miles foam height; set-up: key: X: low water solubility. foam height cannot be measured; settings: Examples 82-83; for Foam Height Final (symbol): after 10 minutes
Description: (§1) Since most of the foaming data on surfactants is typically obtained by the Ross-Miles Foam Height Assay (Ross, J. and Miles, G. D. Am Soc. for Testing Material Method D1173-63 Philadelphia, Pa. (1953); Oil & Soap (1958) 62:1260) the foaming ability of these surfactants were acquired using this method.
(§2) In the Ross-Miles method, 200 mL of a surfactant solution contained in a pipette of specified dimensions with a 2.9-mm-i.d. orifice is allowed to fall 90 cm onto 50 mL of the same solution contained in a cylindrical vessel maintained at a given temperature by means of a water jacket. The height of the foam produced in the cylindrical vessel is read immediately after all the solution has run out of the pipette and then again after a given amount of time.
(§3) Using this method, the foam production (initial foam height in mm) and foam stability (final foam height after 10 minutes in mm) were measured at 0.1% aldonamide concentration, 40° C. and 0 ppm (parts per million) hardness. Aldonamides that were not soluble at 40° C. were measured at about 5°-10° C. above their Krafft points.

Water solubility = settings: in words
Ross-Miles foam height [3] = settings: 0.1% aldonamide, 40° C. (or about 5°-10° C. above Krafft point if not soluble), 0 ppm hardness; for Foam Height Final: after 10 minutes
Description: as §1, §2, §3

Molecule | Krafft Point (0.1%) [1] [°C] | Krafft Point (1.0%) [1] [°C] | further results
CCCCCCCCCCCCOC(=O)C(C)NC(=O)[C@H](O)[C@@H](O)[C@H](O)[C@H](O)CO (mixture of isomers) [Y, N-D-Gluconyl Dodecyl DL-Alaninate] | 53 | – | –
CCCCCCCCCCCCNC(=O)[C@H](O)[C@H](O)[C@H](O)CO [A, dodecyl D-ribonamide] | 54 | – | –
CCCCCCCCCCCCOC(=O)CNC(=O)[C@H](O)[C@@H](O)[C@H](O[C@@H]1O[C@H](CO)[C@H](O)[C@H](O)[C@H]1O)[C@H](O)CO [AAA, N-D-lactobionyl dodecyl glycinate] | – | < 0 | –
CCCCCCCCCCCCOC(=O)CCNC(=O)[C@H](O)[C@@H](O)[C@H](O[C@@H]1O[C@H](CO)[C@H](O)[C@H](O)[C@H]1O)[C@H](O)CO [BBB, N-D-lactobionyl dodecyl β-alaninate] | – | < 0 | –
CCCCCCCNC(=O)[C@H](O)[C@@H](O)[C@H](O)[C@H](O)CO [C, C7 D-Gluconamide] | < 0 | – | –
CCCCCCCC/C=C\CCCCCCCCNCCCNC(=O)[C@H](O)[C@@H](O)[C@H](O)[C@H](O)CO [CC, oleylaminopropyl D-gluconamide] | < 0 | – | –
CCCCCCCCNC(=O)[C@H](O)[C@@H](O)[C@H](O)[C@H](O)CO [D, C8 D-Gluconamide] | 12 | – | –
CCCCCCCCCNC(=O)[C@H](O)[C@@H](O)[C@H](O)[C@H](O)CO [E, C9 D-Gluconamide] | 53 | – | –
CCCCCCCCCCCCOCCCNC(=O)[C@H](O)[C@@H](O)[C@H](O)[C@H](O)CO [Entry S, C12 Oxypropyl D-Gluconamide] | 61 | – | –
CCCCCCCCCCNC(=O)[C@H](O)[C@@H](O)[C@H](O)[C@H](O)CO [F, C10 D-Gluconamide] | 75 | – | –
CCCCCCCCCCCCNC(=O)C(O)C(O)C(O)C(O)C(O)C(O)CO [FF, C12 D-Glucooctonamide] | 86 | – | Foam Height Final (symbol) (Ross-Miles foam height [2]): X; Foam Height Initial (symbol) (Ross-Miles foam height [2]): X
CCCCCCCCCCCNC(=O)[C@H](O)[C@@H](O)[C@H](O)[C@H](O)CO [G, C11 D-Gluconamide] | 87 | – | Foam Height Final (symbol) (Ross-Miles foam height [2]): X; Foam Height Initial (symbol) (Ross-Miles foam height [2]): X
CCCCCCCCCCCCNC(=O)[C@H](O)[C@H](O)[C@@H](O)[C@@H](O)[C@H](O)CO [GG, C12 D-Glycero-L-Mannoheptonamide] | > 100 | – | water solubility (Water solubility): Insoluble
CCCCCCCCCCCCNC(=O)[C@H](O)[C@H](O)[C@@H](O)[C@H](O)[C@H](O)CO [HH, C12 D-Glucoheptonamide] | 91 | – | Foam Height Final (symbol) (Ross-Miles foam height [2]): X; Foam Height Initial (symbol) (Ross-Miles foam height [2]): X
CCCCCCCCCCCCNC(=O)[C@@H](O)[C@H](O)[C@@H](O)[C@@H](O)CO [I, C12 L-Gluconamide] | 91 | – | Foam Height Final (symbol) (Ross-Miles foam height [2]): X; Foam Height Initial (symbol) (Ross-Miles foam height [2]): X
CCCCCCCCCCCCNC(=O)[C@H](O)[C@@H](O)[C@@H](O)[C@H](O)CO [J, C12 D-Galactonamide] | > 100 | – | water solubility (Water solubility): Insoluble
CCCCCCCCCCCCNC(=O)[C@@H](O)[C@H](O)[C@H](O)[C@@H](O)CO [K, C12 L-Galactonamide] | > 100 | – | water solubility (Water solubility): Insoluble
CCCCCCCCCCCCOCCCNC(=O)[C@H](O)[C@H](O)[C@@H](O)[C@H](O)[C@H](O)CO [KK, C12 Oxypropyl D-Glucoheptonamide] | 73 | – | –
CCCCCCCCCNC(=O)[C@H](O)[C@@H](O)[C@H](O[C@@H]1O[C@H](CO)[C@H](O)[C@H](O)[C@H]1O)[C@H](O)CO [MM, nonyl D-lactobionamide] | – | 42 | –
CCCCCCCCCCCNC(=O)[C@H](O)[C@@H](O)[C@H](O[C@@H]1O[C@H](CO)[C@H](O)[C@H](O)[C@H]1O)[C@H](O)CO [NN, C11 D-Lactobionamide] | – | 61 | –
CCCCCCCCCCCCNC(=O)[C@H](O)[C@@H](O)[C@H](O[C@@H]1O[C@H](CO)[C@H](O)[C@H](O)[C@H]1O)[C@H](O)CO [OO, C12 D-Lactobionamide] | – | 38 | –
CCCCC(CC)COCCCNC(=O)[C@H](O)[C@@H](O)[C@H](O)[C@H](O)CO (stereo partly drawn) [P, Ethylhexyloxypropyl D-Gluconamide] | < 0 | – | –
CCCCCCCCCCCCCNC(=O)[C@H](O)[C@@H](O)[C@H](O[C@@H]1O[C@H](CO)[C@H](O)[C@H](O)[C@H]1O)[C@H](O)CO [PP, C13 D-Lactobionamide] | – | 70 | –
CCCCCCCCCCCCCCNC(=O)[C@H](O)[C@@H](O)[C@H](O[C@@H]1O[C@H](CO)[C@H](O)[C@H](O)[C@H]1O)[C@H](O)CO [QQ, C14 D-Lactobionamide] | – | 18 | –
CCCCCCCCCCCCCCNC(=O)[C@H](O)[C@@H](O)[C@H](O[C@H]1O[C@H](CO)[C@@H](O)[C@H](O)[C@H]1O)[C@H](O)CO [RR, C14 D-Maltobionamide] | – | 46 | –

Molecule | Krafft Point (0.1%) [1] [°C] | Krafft Point (1.0%) [1] [°C] | further results
CCCCCCCCCCCCCCCCNC(=O)[C@H](O)[C@@H](O)[C@H](O[C@@H]1O[C@H](CO)[C@H](O)[C@H](O)[C@H]1O)[C@H](O)CO [TT, C16 D-Lactobionamide] | – | 64 | –
CCCCCCCCCCCCCCOCCCNC(=O)[C@H](O)[C@@H](O)[C@H](O)[C@H](O)CO [V, C14 Oxypropyl D-Gluconamide] | 53 | – | –
CCCCCCCCCCCCOC(=O)CNC(=O)[C@H](O)[C@@H](O)[C@H](O)[C@H](O)CO [W, N-D-gluconyl dodecyl glycinate] | 63 | – | –
CCCCCCCCCCCCOCCCNC(=O)[C@H](O)[C@@H](O)[C@H](O[C@@H]1O[C@H](CO)[C@H](O)[C@H](O)[C@H]1O)[C@H](O)CO [WW, dodecyloxypropyl D-lactobionamide] | – | < 0 | –
CCCCCCCCCCCC(=O)OCCNC(=O)[C@H](O)[C@@H](O)[C@H](O)[C@H](O)CO [X, N-D-gluconyl dodecyl ester of ethanolamine] | 63 | – | –
CCCCCCCCCCCCOCCCNC(=O)[C@H](O)[C@@H](O)[C@H](O[C@H]1O[C@H](CO)[C@@H](O)[C@H](O)[C@H]1O)[C@H](O)CO [XX, dodecyloxypropyl D-maltobionamide] | – | < 0 | –
CCCCCCCCCCCCOCCOCCOC(=O)CNC(=O)[C@H](O)[C@@H](O)[C@H](O)[C@H](O)CO [Z, N-D-Gluconyl Dodecyldi(oxyethyl) Glycinate] | < 0 | – | –
CCCCCCCCCCCCCCOCCCNC(=O)[C@H](O)[C@@H](O)[C@H](O[C@@H]1O[C@H](CO)[C@H](O)[C@H](O)[C@H]1O)[C@H](O)CO [ZZ, tetradecyloxypropyl D-lactobionamide] | – | < 0 | –
C8 /C10 Oxypropyl D-Glucoheptonamide [II] | 60 | – | Foam Height Final (Ross-Miles foam height [3]): 90 mm; Foam Height Initial (Ross-Miles foam height [3]): 221 mm
C12 -C15 Oxypropyl D-Glucoheptonamide [LL] | 68 | – | Foam Height Final (Ross-Miles foam height [3]): 97 mm; Foam Height Initial (Ross-Miles foam height [3]): 239 mm
Iso C10 Oxypropyl D-Glucoheptonamide [JJ] | 18 | – | Foam Height Final (Ross-Miles foam height [3]): 204 mm; Foam Height Initial (Ross-Miles foam height [3]): 215 mm
Iso C10 Oxypropyl D-Gluconamide | < 0 | – | Foam Height Final (Ross-Miles foam height [3]): 206 mm; Foam Height Initial (Ross-Miles foam height [3]): 213 mm
Iso C13 Oxypropyl D-Gluconamide [T] | < 15 | – | –
Iso C13 Oxypropylaminopropyl D-Gluconamide [DD] | < 0 | – | Foam Height Final (Ross-Miles foam height [3]): 178 mm
cocoaminopropyl D-gluconamide [AA] | 18 | – | –
cocoaminopropyl D-lactobionamide [CCC] | – | < 0 | –
dodecyl to pentadecyloxypropyl D-gluconamide | 58 | – | –
dodecyl to pentadecyloxypropyl D-lactobionamide [YY] | – | < 0 | –
dodecyl to pentadecyloxypropylaminopropyl D-gluconamide [EE] | < 0 | – | –
dodecyl to pentadecyloxypropylaminopropyl D-lactobionamide [EEE] | – | < 0 | –
octyl/decyloxypropyl D-lactobionamide [VV] | – | < 0 | –
octyl/decyloxypropyl D-ribonamide | 10 | – | –
oleylaminopropyl D-lactobionamide [DDD] | – | < 0 | Foam Height Initial (Ross-Miles foam height [3]): 169 mm
soyaaminopropyl D-gluconamide [BB] | < 18 | – | –
